What was measured:
[1] = DPPH radical scavenging of highly hopped beer during aging at 40° C.; assay type: physicochemical; conditions: for effect on DPPH numbers: beers not treated with air; for effect on DPPH number: beers treated with air
Description: The bottle dosing methods used were the same as those described in Example 1. The following samples were made: • 1. 20 ppm Carnosic Acid • 2. 20 ppm Carnosic Acid plus Air • 3. 20 ppm Rosmarinic Acid • 4. 20 ppm Rosmarinic Acid plus Air • 5. 10 ppm Carnosic Acid+10 ppm Rosmarinic Acid • 6. 10 ppm Carnosic Acid+10 ppm Rosmarinic Acid+Air • 7. […] No Additions. Treatments 1 through 8 were put in a temperature regulated room set at 40° C. and maintained at ±1° C. At intervals of Zero time, 3 days, 7 days, 14 days, and 21 days, samples were withdrawn and Redox Potentials were measured by the method outlined in example 4. Color measurements were made using the L, a, b system on a Minolta Spectrophotometer model […], chroma and hue angle color measure units were recorded. DPPH radical scavenging numbers were measured using the following method. A de-ionized-H2O/EtOH buffer solution was prepared by dissolving 250 mg sodium citrate dihydrate and 10 g of absolute ethanol in 250 mL of deionized water. The solution was then titrated with 0.1 N Citric acid (6.404 g/L anhydrous citric acid) a drop at a time to reach a pH of between 4.35 and 4.5. To perform the test, about 0.04 g of DPPH was weighed to the nearest 0.1 mg in a 100 mL volumetric, recording the exact weight of DPPH. The DPPH was dissolved in methanol and methanol was added to bring the volume to the 100 mL mark. The solution was sonicated to facilitate dissolution. The beers to be measured were opened and 12 mL of each was poured into separate 15 mL centrifuge tubes, making sure that the volumes in all tubes were equal. The analyses were done in triplicate for each beer. An extra beer sample served as a spectrophotometer blank. The beer was degassed by centrifuging it for 15 min at 6,000 rpm. Into each of two 25 mL flasks was pipeted 5 mL of the pH 4.5 water-ethanol buffer. The spectrophotometer wavelength was set to 531 nm and a buffered water blank was zeroed. 1.0 mL of DPPH solution was added to the water buffer, which was swirled at the same time a timer was started. Just before 10 minutes had elapsed, the sample was transferred to a cuvette and the absorbance (ABL) was measured. The analysis was duplicated with another buffer. For accuracy it is necessary that great care be taken to add exactly 1 mL reagent. It is also important to swirl (mix) the samples consistently as the assay is sensitive to oxygen and to the amount of reagent used. Degassed beer was used to obtain a baseline at 531 nm. After centrifugation 5 mL of the beer was transferred into the appropriate labeled 25 mL flask. 1.0 mL of DPPH solution was added, the solution was swirled and the timer was started. The Absorbance ([…]) of the beer sample was recorded. This process was repeated for all samples. To eliminate any possible prejudice in order of analysis, samples were analyzed randomly. The following formula was used to calculate the amount of DPPH which reacts with 5 mL of beer: μmol DPPH=((1-[…]/ABL)×(g DPPH/394))×10^6

[2] = DCIP redox potential of mash (first wort); assay type: physicochemical; conditions: for Redox: 20 ppm in mash (20 mg/kg of mash), first wort
Description: A 300 g sample of 2-row Pale Barley Malt obtained from a local brewery was ground to a “brewery grind” with a hand grinder. Fifty-gram samples of the ground malt were weighed into each of three 600 mL beakers. Tap water was boiled for 5 min to remove the chlorine and sanitize the water. When cooled, the pH of the water was adjusted from 7.86 to 5.5 with 0.1 N H2SO4. The water was then heated to 43° C. (109.4° F.) and 160 g of this adjusted water was added to each beaker. To one of the beakers was added 210 μL of a 2% solution of carnosic acid in ethanol (giving 20 mg CA/kg of mash). To another beaker was added 210 μL of a 2% solution of rosmarinic acid. One beaker received no treatment. The beakers were stirred for 10 min at 43° C. on a temperature probe controlled hot plate, with the probe in one of the beakers. After the 10 min period the beakers were placed on another temperature probe controlled hot plate set at 68° C. (154.4° F.), and the probe put in one of the mash beakers. The come up time was approximately 15 min from 43° C. to 68° C. The beakers were stirred at this temperature for 15 min. After the 15-minute mash, the beakers were removed from the hot plate and cooled in an ice bath. Each beaker's contents were strained through a paper filter. Approximately 75 mL of first wort was collected from each mash. The grain was not sparged. The °Balling of the worts was measured with a temperature-compensated refractometer (Abbe, Leica Mark II).

[3] = Sensory panel staling scaling of bottled standard American lager; conditions: 10 ppm (RA/CA: 5 ppm CA + 5 ppm RA)
Description: A standard American lager and a light lager were purchased commercially. The treatment bottles were opened, dosed, fobbed, crowned and inverted. The control bottles were opened, crowned and inverted. Dosing was performed as follows. One gram of pure antioxidant (corrected for actual purity) was dissolved in 100 mL ethanol and sonicated to make the antioxidant solutions of 1 weight/volume %. The volumes shown in Table 16 show the amount of the antioxidant solutions added to obtain a total of 10 ppm carnosic acid and/or rosmarinic acid in the final beverage formulations.
The sensory data were taken in the following manner. Each treatment sample was presented to the panelists one time each in two different sessions each at a different amount of aging time (5 vs. 10 days). Panelists rated the beers on a scale of 0-10, with 0 being fresh and 10 being most stale. Since the output of the panel as a whole was desired, and not any one individual panelist, the means of each treatment sample in each replicate groups were calculated and tabulated as in Table 17. Samples spiked with known amounts of off-flavors characteristic of the aged standard American lager were used as reference beers. This characterization was done in a separate descriptive session. The characteristic off-flavors in the pilot brewery beer were papery and leathery, and these were each spiked into fresh control beer at 0.75 and 1.5 times the typical flavor threshold.
Statistical analysis consisted of doing paired t-Tests on the treatment sample vs. the aged control sample (Table 18). One-tailed tests were used that probed the question whether the staling values of one treatment were lower than that of the other (e.g treatment vs. control). Confidence levels were reported along with p values.

[4] = Phenylacetaldehyde in headspace of aged beer; assay type: physicochemical; conditions: for Phenylacetaldehyde in the headspace of aged beer: 20 ppm (RA + CA: 10 ppm each); for effect on formation of phenylacetaldehyde and 3-methylbutanal: aged beer, 40° C.
Description: The highly hopped beer from example 2 was treated with solutions of carnosic acid in ethanol, rosmarinic acid in ethanol or a mixture of carnosic acid and rosmarinic acid in ethanol as done previously. […] The bottles were fobbed to exclude air and crowned. • 3. “20 ppm CA+air” in which bottles were opened and 20 ppm CA added as above. These bottles received two puffs of air in the remaining headspace from a 25 mL bulb. They were crowned without fobbing • 4. “20 ppm RA” in which bottles were opened and 20 ppm rosmarinic acid added from a 2% solution. The bottles were fobbed and crowned. • 5. “20 ppm RA+air” which was done as in No. 4, with 20 ppm RA added. These bottles received the two puffs of air and were crowned without fobbing. • 6. “10 ppm RA+10 ppm CA” in which bottles were opened and 10 ppm each of carnosic and rosmarinic acids were added from pure solutions (178 μL of 2% solution per 12 oz bottle). Bottles were fobbed and crowned. • 7. “10 ppm RA+10 ppm CA+air” in which 10 ppm each of RA and CA was added. This treatment received two puffs of air and was not fobbed before closing. • 8. “Control+air” in which bottles were opened, given two puffs of air and crowned without fobbing. • 9. “Control” in which bottles were opened, fobbed and crowned. Treatments 2 through 9 were stored in a 40° C. hot room. At various times, bottles were opened and samples analyzed for phenylacetaldehyde and 3-methylbutanal by the method of “[…], et al. The results are shown in Table 19.

[5] = 0 days at 40° C., + Air, 20 ppm (RA + CA: 10 ppm each)
[6] = 0 days at 40° C., no air, 20 ppm (CA + RA: 10 ppm each)
[7] = 3 days at 40° C., + Air, 20 ppm (RA + CA: 10 ppm each)
[8] = 3 days at 40° C., no air, 20 ppm (CA + RA: 10 ppm each)
[9] = 7 days at 40° C., + Air, 20 ppm (RA + CA: 10 ppm each)
[10] = 7 days at 40° C., no air, 20 ppm (CA + RA: 10 ppm each)
[11] = 14 days at 40° C., + Air, 20 ppm (RA + CA: 10 ppm each)
[12] = 14 days at 40° C., no air, 20 ppm (CA + RA: 10 ppm each)
[13] = 21 days at 40° C., + Air, 20 ppm (RA + CA: 10 ppm each)
[14] = 21 days at 40° C., no air, 20 ppm (CA + RA: 10 ppm each)

CC(C)c1cc2c(c(O)c1O)[C@@]1(C(=O)O)CCCC(C)(C)[C@@H]1CC2 [CA, carnosic acid]
DPPH Number [1, 5]: 53.3 μmol DPPH | DPPH Number [1, 6]: 52.2 μmol DPPH | DPPH Number [1, 7]: 67.2 μmol DPPH | DPPH Number [1, 8]: 69.8 μmol DPPH | DPPH Number [1, 9]: 55.6 μmol DPPH | DPPH Number [1, 10]: 64.7 μmol DPPH | DPPH Number [1, 11]: 61.7 μmol DPPH | DPPH Number [1, 12]: 64.4 μmol DPPH | DPPH Number [1, 13]: 56.5 μmol DPPH | DPPH Number [1, 14]: 60.5 μmol DPPH | effect on DPPH numbers [1]: Neither CA nor RA has much impact on DPPH numbers | effect on DPPH number [1]: preserves the DPPH number in beers that have been treated with air | enhancing effect on redox potential of mash relative to RA ([2]; 20 ppm): less by about half the effect seen with RA | Redox [2]: 17.3 | Panelist staling average, Day 5 Average (0 fresh, 10 most stale) ([3]; Aged): 3.00 | Panelist staling average, Day 10 Average (0 fresh, 10 most stale) ([3]; Aged): 4.375 | Panelist staling average, Day 5 Average (0 fresh, 10 most stale) ([3]; Fresh): 2.89 | Panelist staling average, Day 10 Average (0 fresh, 10 most stale) ([3]; Fresh): 2.25 | Phenylacetaldehyde in the headspace of aged beer ([4]; Day 0, 40° C., + air): 30.49 Parts per million | Phenylacetaldehyde in the headspace of aged beer ([4]; Day 0, 40° C., no air): 32.76 Parts per million | Phenylacetaldehyde in the headspace of aged beer ([4]; Day 3, 40° C., + air): 42.05 Parts per million | Phenylacetaldehyde in the headspace of aged beer ([4]; Day 3, 40° C., no air): 46.34 Parts per million | Phenylacetaldehyde in the headspace of aged beer ([4]; Day 7, 40° C., + air): 63.82 Parts per million | Phenylacetaldehyde in the headspace of aged beer ([4]; Day 7, 40° C., no air): 57.39 Parts per million | Phenylacetaldehyde in the headspace of aged beer ([4]; Day 14, 40° C., + air): 25.74 Parts per million | Phenylacetaldehyde in the headspace of aged beer ([4]; Day 14, 40° C., no air): 24.75 Parts per million | Phenylacetaldehyde in the headspace of aged beer ([4]; Day 21, 40° C., + air): 88.86 Parts per million | Phenylacetaldehyde in the headspace of aged beer ([4]; Day 21, 40° C., no air): 52.94 Parts per million | effect on formation of phenylacetaldehyde and 3-methylbutanal [4]: dramatic effect in decreasing the formation of these off-flavor compounds

O=C(/C=C/c1ccc(O)c(O)c1)O[C@H](Cc1ccc(O)c(O)c1)C(=O)O [RA, rosmarinic acid]
DPPH Number [1, 5]: 49.9 μmol DPPH | DPPH Number [1, 6]: 51.8 μmol DPPH | DPPH Number [1, 7]: 67.1 μmol DPPH | DPPH Number [1, 8]: 66.3 μmol DPPH | DPPH Number [1, 9]: 57.7 μmol DPPH | DPPH Number [1, 10]: 58.7 μmol DPPH | DPPH Number [1, 11]: 56.3 μmol DPPH | DPPH Number [1, 12]: 63.7 μmol DPPH | DPPH Number [1, 13]: 50.5 μmol DPPH | DPPH Number [1, 14]: 57.5 μmol DPPH | effect on DPPH numbers [1]: Neither CA nor RA has much impact on DPPH numbers | effect on DPPH number [1]: preserves the DPPH number in beers that have been treated with air | Redox [2]: 38.8 | Panelist staling average, Day 5 Average (0 fresh, 10 most stale) ([3]; Aged): 3.22 | Panelist staling average, Day 10 Average (0 fresh, 10 most stale) ([3]; Aged): 2.75 | Panelist staling average, Day 5 Average (0 fresh, 10 most stale) ([3]; Fresh): 0.78 | Panelist staling average, Day 10 Average (0 fresh, 10 most stale) ([3]; Fresh): 2.5 | Phenylacetaldehyde in the headspace of aged beer ([4]; Day 0, 40° C., + air): 50.16 Parts per million | Phenylacetaldehyde in the headspace of aged beer ([4]; Day 0, 40° C., no air): 43.6 Parts per million | Phenylacetaldehyde in the headspace of aged beer ([4]; Day 3, 40° C., + air): 48.83 Parts per million | Phenylacetaldehyde in the headspace of aged beer ([4]; Day 3, 40° C., no air): 45.83 Parts per million | Phenylacetaldehyde in the headspace of aged beer ([4]; Day 7, 40° C., + air): 66.68 Parts per million | Phenylacetaldehyde in the headspace of aged beer ([4]; Day 7, 40° C., no air): 46.01 Parts per million | Phenylacetaldehyde in the headspace of aged beer ([4]; Day 14, 40° C., + air): 55.65 Parts per million | Phenylacetaldehyde in the headspace of aged beer ([4]; Day 14, 40° C., no air): 52.71 Parts per million | Phenylacetaldehyde in the headspace of aged beer ([4]; Day 21, 40° C., + air): 68.89 Parts per million | Phenylacetaldehyde in the headspace of aged beer ([4]; Day 21, 40° C., no air): 52.14 Parts per million | effect on formation of phenylacetaldehyde and 3-methylbutanal [4]: dramatic effect in decreasing the formation of these off-flavor compounds
